Test system: patients with seasonal allergic rhinitis (SAR)
Assay: MP 428 two-week randomized double-blind study: Total Nasal Symptom Score (TNSS), change from baseline
Type: in vivo, human
Design: key to Change from Baseline in AM TNSS, Mean / Change from Baseline in AM TNSS, LS Mean / Change from Baseline in AM TNSS, Median: TNSS sum of 4 symptoms each 0-3 (0=none, 3=severe); change from baseline
Experimental: A two-week, randomized, double-blind study, which evaluated the effects of the co-administration of ASTELIN® (azelastine hydrochloride (HCl)) and FLONASE® (fluticasone propionate) compared to either product alone in patients with seasonal allergic rhinitis (SAR) was conducted during the 2006 Texas mountain cedar season. After a 5-day placebo lead-in period, 151 patients with moderate-to-severe allergic rhinitis symptoms were randomized to either: (1) (49 total patients) ASTELIN® (azelastine hydrochloride (HCl)) plus placebo saline nasal spray 2 sprays per nostril, 15 minutes apart, twice daily (AM & PM); (2) (50 total patients) FLONASE® (fluticasone propionate) plus placebo saline nasal spray, 2 sprays per nostril, 15 minutes apart, once daily (AM) and two sessions of placebo saline nasal spray, 2 sprays per nostril, 15 minutes apart (PM); or (3) (52 total patients) the co-administration of ASTELIN® (azelastine hydrochloride (HCl)) 2 sprays per nostril plus FLONASE® (fluticasone propionate) 2 sprays per nostril (AM), 15 minutes apart, and ASTELIN® (azelastine hydrochloride (HCl)) 2 sprays per nostril plus placebo saline nasal spray, 15 minutes apart, (PM) for a 2-week double-blind treatment period.
The primary efficacy variable was the change from baseline in the Total Nasal Symptom Score (TNSS), which comprised sneezing, itchy nose, runny nose, and nasal congestion (individual symptoms scores were assigned a value between 0 and 3, where 0=no symptoms and 3=severe symptoms). This study was not statistically designed to assess the differences between ASTELIN® and FLONASE®.

[1] = Day 2, Intent-to-Treat Population
[2] = Day 3, Intent-to-Treat Population
[3] = Day 4, Intent-to-Treat Population
[4] = Day 5, Intent-to-Treat Population

Compound: CCC(=O)O[C@]1(C(=O)SCF)[C@H](C)C[C@H]2[C@@H]3C[C@H](F)C4=CC(=O)C=C[C@]4(C)[C@@]3(F)[C@@H](O)C[C@@]21C [Fluticasone, fluticasone propionate]
- Primary Reason for Discontinuation From Study: Treatment Failure (All Randomized Patients): 1 (2.0) N (%)
- Change from Baseline in AM TNSS, LS Mean [1]: −1.58
- Change from Baseline in AM TNSS, Mean [1]: −1.65
- Change from Baseline in AM TNSS, Median [1]: −1.00
- Change from Baseline in AM and PM Combined TNSS, Mean [1]: −3.24
- Change from Baseline in AM and PM Combined TNSS, Median [1]: −2.00
- Change from Baseline in PM TNSS, LS Mean [1]: −1.54
- Change from Baseline in PM TNSS, Mean [1]: −1.59
- Change from Baseline in PM TNSS, Median [1]: −1.00
- Percent Change from Baseline in AM TNSS, LS Mean [1]: −16.43%
- Percent Change from Baseline in AM TNSS, Mean [1]: −17.21%
- Percent Change from Baseline in AM TNSS, Median [1]: −11.11%
- Percent Change from Baseline in AM and PM Combined TNSS, LS Mean [1]: −16.35%
- Percent Change from Baseline in AM and PM Combined TNSS, Mean [1]: −16.91%
- Percent Change from Baseline in AM and PM Combined TNSS, Median [1]: −12.46%
- Percent Change from Baseline in PM TNSS, LS Mean [1]: −16.05%
- Percent Change from Baseline in PM TNSS, Mean [1]: −16.52%
- Percent Change from Baseline in PM TNSS, Median [1]: −11.11%
- Change from Baseline in AM and PM Combined TNSS, LS Mean (Day 2, Intent-to-Treat Population, ANCOVA model): −3.12
- Change from Baseline in AM and PM Combined TNSS, LS Mean (Day 2, Per-Protocol Population): −3.10
- Change from Baseline in AM and PM Combined TNSS, Mean (Day 2, Per-Protocol Population): −3.27
- Change from Baseline in AM and PM Combined TNSS, Median (Day 2, Per-Protocol Population): −2.00
- Percent Change from Baseline in AM and PM Combined TNSS, LS Mean (Day 2, Per-Protocol Population): −16.38%
- Percent Change from Baseline in AM and PM Combined TNSS, Mean (Day 2, Per-Protocol Population): −17.11%
- Percent Change from Baseline in AM and PM Combined TNSS, Median (Day 2, Per-Protocol Population): −12.46%
- Change from Baseline in AM TNSS, LS Mean [2]: −2.01
- Change from Baseline in AM TNSS, Mean [2]: −2.04
- Change from Baseline in AM TNSS, Median [2]: −1.50
- Change from Baseline in AM and PM Combined TNSS, Mean [2]: −4.12
- Change from Baseline in AM and PM Combined TNSS, Median [2]: −3.20
- Change from Baseline in PM TNSS, LS Mean [2]: −2.08
- Change from Baseline in PM TNSS, Mean [2]: −2.08
- Change from Baseline in PM TNSS, Median [2]: −1.80
- Percent Change from Baseline in AM TNSS, LS Mean [2]: −21.72%
- Percent Change from Baseline in AM TNSS, Mean [2]: −22.09%
- Percent Change from Baseline in AM TNSS, Median [2]: −14.29%
- Percent Change from Baseline in AM and PM Combined TNSS, LS Mean [2]: −22.17%
- Percent Change from Baseline in AM and PM Combined TNSS, Mean [2]: −22.26%
- Percent Change from Baseline in AM and PM Combined TNSS, Median [2]: −16.67%
- Percent Change from Baseline in PM TNSS, LS Mean [2]: −22.22%
- Percent Change from Baseline in PM TNSS, Mean [2]: −22.28%
- Percent Change from Baseline in PM TNSS, Median [2]: −20.00%
- Change from Baseline in AM and PM Combined TNSS, LS Mean (Day 3, Intent-to-Treat Population, ANCOVA model): −4.09
- Change from Baseline in AM and PM Combined TNSS, LS Mean (Day 3, Per-Protocol Population): −4.18
- Change from Baseline in AM and PM Combined TNSS, Mean (Day 3, Per-Protocol Population): −4.25
- Change from Baseline in AM and PM Combined TNSS, Median (Day 3, Per-Protocol Population): −3.47
- Percent Change from Baseline in AM and PM Combined TNSS, LS Mean (Day 3, Per-Protocol Population): −22.68%
- Percent Change from Baseline in AM and PM Combined TNSS, Mean (Day 3, Per-Protocol Population): −22.87%
- Percent Change from Baseline in AM and PM Combined TNSS, Median (Day 3, Per-Protocol Population): −16.67%
- Change from Baseline in AM TNSS, LS Mean [3]: −2.43
- Change from Baseline in AM TNSS, Mean [3]: −2.41
- Change from Baseline in AM TNSS, Median [3]: −2.67
- Change from Baseline in AM and PM Combined TNSS, Mean [3]: −4.53
- Change from Baseline in AM and PM Combined TNSS, Median [3]: −4.17
- Change from Baseline in PM TNSS, LS Mean [3]: −2.10
- Change from Baseline in PM TNSS, Mean [3]: −2.12
- Change from Baseline in PM TNSS, Median [3]: −1.80
- Percent Change from Baseline in AM TNSS, LS Mean [3]: −25.32%
- Percent Change from Baseline in AM TNSS, Mean [3]: −25.07%
- Percent Change from Baseline in AM TNSS, Median [3]: −27.27%
- Percent Change from Baseline in AM and PM Combined TNSS, LS Mean [3]: −23.75%
- Percent Change from Baseline in AM and PM Combined TNSS, Mean [3]: −23.67%
- Percent Change from Baseline in AM and PM Combined TNSS, Median [3]: −23.60%
- Percent Change from Baseline in PM TNSS, LS Mean [3]: −21.91%
- Percent Change from Baseline in PM TNSS, Mean [3]: −22.22%
- Percent Change from Baseline in PM TNSS, Median [3]: −20.00%
- Change from Baseline in AM and PM Combined TNSS, LS Mean (Day 4, Intent-to-Treat Population, ANCOVA model): −4.53
- Change from Baseline in AM and PM Combined TNSS, LS Mean (Day 4, Per-Protocol Population): −4.61
- Change from Baseline in AM and PM Combined TNSS, Mean (Day 4, Per-Protocol Population): −4.63
- Change from Baseline in AM and PM Combined TNSS, Median (Day 4, Per-Protocol Population): −4.17
- Percent Change from Baseline in AM and PM Combined TNSS, LS Mean (Day 4, Per-Protocol Population): −24.10%
- Percent Change from Baseline in AM and PM Combined TNSS, Mean (Day 4, Per-Protocol Population): −24.08%
- Percent Change from Baseline in AM and PM Combined TNSS, Median (Day 4, Per-Protocol Population): −23.60%
- Change from Baseline in AM TNSS, LS Mean [4]: −2.59
- Change from Baseline in AM TNSS, Mean [4]: −2.57
- Change from Baseline in AM TNSS, Median [4]: −2.00
- Change from Baseline in AM and PM Combined TNSS, Mean [4]: −5.16
- Change from Baseline in AM and PM Combined TNSS, Median [4]: −4.40
- Change from Baseline in PM TNSS, LS Mean [4]: −2.61
- Change from Baseline in PM TNSS, Mean [4]: −2.59
- Change from Baseline in PM TNSS, Median [4]: −2.00
- Percent Change from Baseline in AM TNSS, LS Mean [4]: −26.91%
- Percent Change from Baseline in AM TNSS, Mean [4]: −26.62%
- Percent Change from Baseline in AM TNSS, Median [4]: −19.23%
- Percent Change from Baseline in AM and PM Combined TNSS, LS Mean [4]: −27.20%

From patent US8758816B2, “Compositions comprising azelastine and methods of use thereof” (priority 2004, dated 2014)
